The text below walks through data of US8409836B2, “Treatment of cellulosic material and enzymes useful therein” (Roal Oy, priority 2005, dated 2013).

Holding throughout (assay type): biochemical
Data set [1] has as its target T1, Acremonium thermophilum ALKO4245 cellobiohydrolase At Cel7A (At CBH/Cel7A), recombinant, SEQ ID NO: 6 (Phialemonium thermophilum, UniProt A7WNT9).
T1 sequence (A7WNT9 18-523): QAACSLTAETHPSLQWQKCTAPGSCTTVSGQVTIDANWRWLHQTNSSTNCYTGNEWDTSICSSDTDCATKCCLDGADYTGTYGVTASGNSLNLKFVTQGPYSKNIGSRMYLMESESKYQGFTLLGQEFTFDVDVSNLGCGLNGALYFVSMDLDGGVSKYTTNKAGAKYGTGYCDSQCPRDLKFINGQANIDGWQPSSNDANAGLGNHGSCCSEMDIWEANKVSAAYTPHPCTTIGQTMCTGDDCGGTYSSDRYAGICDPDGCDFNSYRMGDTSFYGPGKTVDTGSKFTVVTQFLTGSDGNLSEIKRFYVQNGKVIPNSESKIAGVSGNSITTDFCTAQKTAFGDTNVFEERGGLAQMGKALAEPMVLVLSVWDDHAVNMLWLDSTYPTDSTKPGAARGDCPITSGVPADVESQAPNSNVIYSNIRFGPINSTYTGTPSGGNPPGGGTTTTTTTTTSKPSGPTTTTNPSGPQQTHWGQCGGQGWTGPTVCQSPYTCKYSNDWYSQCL
The experiment in a line: Cellobiose inhibition constant, CNPLac as substrate. Here is the method:
(§1) The Michaelis-Menten and cellobiose inhibition constants were determined from the cellobiohydrolases produced heterologously in T. reesei (Examples 14 and 15). The enzymes were purified as described in Example 2. Protein concentrations of purified enzymes were measured by their absorption at 280 nm using a theoretical molar extinction co-efficient, which were calculated from the amino acid sequences (Gill and von Hippel, 1989).
(§2) Kinetic constants (Km and kcat values) and cellobiose inhibition constant (Ki) for Tr CBHI/Cel7A, Ta CBH/Cel7A, At CBH/Cel7A and Ct CBH/Cel7A, were measured using CNPLac (2-Chloro-4-nitrophenyl-β-D-lactoside) as substrate at ambient temperature (22° C.) in 50 mM sodium phosphate buffer, pH 5.7. For the determination of the inhibition constant (Ki), eight different substrate concentrations (31-4000 μM) in the presence of a range of five inhibitor concentrations (0-100 μM or 0-400 μM), which bracket the Ki value, were used. All experiments were performed in microtiter plates and the total reaction volume was 200 μl. The initial rates were in each case measured by continuous monitoring the release of the chloro-nitrophenolate anion (CNP, 2-Chloro-4-nitrophenolate) through measurements at 405 nm using Varioscan (Thermolabsystems) microtiter plate reader. The results were calculated from CNP standard curve (from 0 to 100 μM). Enzyme concentrations used were: Tr CBHI/Cel7A 2.46 μM, Ta CBH/Cel7A 1.58 μM, Ct CBH/Cel7A 0.79 μM and At CBH/Cel7A 3 μM. The Km and kcat constants were calculated from the fitting of the Michaelis-Menten equation using the programme of Origin. Lineweaver-Burk plots, replots (LWB slope versus [Glc2; cellobiose]) and Hanes plots were used to distinguish between competitive and mixed type inhibition and to determine the inhibition constants (Ki).

Data set [2] addresses T2, Chaetomium thermophilum ALKO4265 cellobiohydrolase Ct Cel7A (Ct CBH/Cel7A), recombinant, SEQ ID NO: 8 (Thermochaetoides thermophila, UniProt A7WNU1).
T2 sequence (A7WNU1 19-532): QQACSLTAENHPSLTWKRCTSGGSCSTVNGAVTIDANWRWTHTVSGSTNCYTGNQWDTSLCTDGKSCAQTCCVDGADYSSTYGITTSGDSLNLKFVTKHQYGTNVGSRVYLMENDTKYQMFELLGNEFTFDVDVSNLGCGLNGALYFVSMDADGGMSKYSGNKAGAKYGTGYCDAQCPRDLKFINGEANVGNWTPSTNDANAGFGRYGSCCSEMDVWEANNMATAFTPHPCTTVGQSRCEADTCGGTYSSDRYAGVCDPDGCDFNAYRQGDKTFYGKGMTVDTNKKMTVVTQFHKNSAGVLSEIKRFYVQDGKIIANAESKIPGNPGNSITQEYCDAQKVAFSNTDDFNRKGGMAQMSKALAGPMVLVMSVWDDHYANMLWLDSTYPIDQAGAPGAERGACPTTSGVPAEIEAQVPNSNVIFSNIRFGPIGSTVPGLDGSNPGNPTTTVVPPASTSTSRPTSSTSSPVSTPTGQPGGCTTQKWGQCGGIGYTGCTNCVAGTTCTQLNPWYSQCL
The description is as above. Here is the method: as §1, §2

Data set [3] addresses T3, Thermoascus aurantiacus ALKO4242 cellobiohydrolase Ta Cel7A (Ta CBH/Cel7A), recombinant, SEQ ID NO: 2 (Thermoascus aurantiacus, UniProt A7WNU2).
T3 sequence (A7WNU2 18-457): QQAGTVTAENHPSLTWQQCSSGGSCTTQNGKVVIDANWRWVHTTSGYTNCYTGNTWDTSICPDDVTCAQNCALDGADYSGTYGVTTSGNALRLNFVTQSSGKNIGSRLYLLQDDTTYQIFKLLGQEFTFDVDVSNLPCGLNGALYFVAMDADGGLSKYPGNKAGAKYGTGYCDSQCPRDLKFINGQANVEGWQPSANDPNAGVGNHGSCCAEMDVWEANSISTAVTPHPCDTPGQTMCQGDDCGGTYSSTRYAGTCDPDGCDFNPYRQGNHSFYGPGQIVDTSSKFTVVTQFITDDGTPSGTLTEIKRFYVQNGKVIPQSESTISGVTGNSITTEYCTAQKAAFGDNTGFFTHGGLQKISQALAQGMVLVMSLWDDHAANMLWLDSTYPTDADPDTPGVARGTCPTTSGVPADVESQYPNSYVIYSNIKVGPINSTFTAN
The description is as above. Here is the method:
as §1, §2

Data set [4] concerns the target Trichoderma reesei cellobiohydrolase I Tr Cel7A (Tr CBHI/Cel7A) (Trichoderma reesei, UniProt A0A024RXP8). The description is as above. The method, then: as §1, §2
A short description of data set [5]: β-glucosidase activity on 4-nitrophenyl-β-D-glucopyranoside. The settings on record: purified β-glucosidase, 50° C. Here is the method:
Acremonium Thermophilum ALKO4245 was grown as described in Example 1. The pure β-glucosidase was obtained by sequential purification with hydrophobic interaction and anion exchange chromatography followed by gel filtration. The β-glucosidase activity of the fractions collected during purification was determined using 4-nitrophenyl-β-D-glucopyranoside as substrate (Bailey and Linko, 1990). Protein content was measured by BioRad Assay Kit (Bio-Rad Laboratories) using bovine serum albumine as standard.
Thermoascus aurantiacus ALKO4242 was grown as described in Example 1. The pure β-glucosidase was obtained by sequential purification with hydrophobic interaction, anion and cation exchange chromatography followed by gel filtration. The β-glucosidase activity of the fractions collected during purification was determined using 4-nitrophenyl-β-D-glucopyranoside as substrate (Bailey and Linko, 1990). Protein content was measured by BioRad Assay Kit (Bio-Rad Laboratories) using bovine serum albumine as standard.

Data set [6] is described as follows: Thermal stability of purified β-glucosidase. The settings on record: 0.1 mg/ml BSA, pH 5.0, 60 min, 4-nitrophenyl-β-D-glucopyranoside. The method, then:
Thermal stability of the purified β-glucosidase was determined at different temperatures. The reaction was performed in the presence of 0.1 mg/ml BSA at pH 5.0 for 60 min using 4-nitrophenyl-β-D-glucopyranoside as substrate. A. thermophilum βG—101 was stable up to 70° C. The Aspergillus reference enzyme (Novozym 188) retained 100% of activity up to 60°.
Thermal stability of the purified β-glucosidase was determined at different temperatures. The reaction was performed in the presence of 0.1 mg/ml BSA at pH 5.0 for 60 min using 4-nitrophenyl-β-D-glucopyranoside as substrate. T. aurantiacus βG—81 was stable up to 75° C. The Aspergillus reference enzyme (Novozym 188) retained 100% of activity up to 60° C.

Data set [7] in a line: pH optimum of heterologously produced β-glucosidases. The settings on record: McIlvaine's buffer, pH range 3.0-8.0, 4-nitrophenyl-β-D-glucopyranoside. Here is the method:
(§3) The pH optimum of the heterologously produced β-glucosidases was determined in the universal McIlvaine's buffer within a pH range of 3.0-8.0 using 4-nitrophenyl-β-D-glucopyranoside as substrate. The pH optima for the Acremonium βG—101, Chaetomium βG—76, and Thermoascus βG—81 are pH 4.5, 5.5, and 4.5, respectively (FIG. 7 A). The optimal temperature for enzymatic activity of these β-glucosidases was determined at the temperature range of 50-85° C. as described above. The highest activity of the enzymes was determined to be at 70° C., 65° C., and 75° C. for the Acremonium βG—101/Cel3A, Chaetomium βG—76/Cel3A, and Thermoascus βG—81/Cel3A, respectively (FIG. 7 B).

Data set [8] is described as follows: Temperature optimum of heterologously produced β-glucosidases. The settings on record: temperature range 50-85° C., 60 min. Here is the method: as §3

Trichoderma reesei cellobiohydrolase I Tr Cel7A (Tr CBHI/Cel7A), sequence (A0A024RXP8 18-514): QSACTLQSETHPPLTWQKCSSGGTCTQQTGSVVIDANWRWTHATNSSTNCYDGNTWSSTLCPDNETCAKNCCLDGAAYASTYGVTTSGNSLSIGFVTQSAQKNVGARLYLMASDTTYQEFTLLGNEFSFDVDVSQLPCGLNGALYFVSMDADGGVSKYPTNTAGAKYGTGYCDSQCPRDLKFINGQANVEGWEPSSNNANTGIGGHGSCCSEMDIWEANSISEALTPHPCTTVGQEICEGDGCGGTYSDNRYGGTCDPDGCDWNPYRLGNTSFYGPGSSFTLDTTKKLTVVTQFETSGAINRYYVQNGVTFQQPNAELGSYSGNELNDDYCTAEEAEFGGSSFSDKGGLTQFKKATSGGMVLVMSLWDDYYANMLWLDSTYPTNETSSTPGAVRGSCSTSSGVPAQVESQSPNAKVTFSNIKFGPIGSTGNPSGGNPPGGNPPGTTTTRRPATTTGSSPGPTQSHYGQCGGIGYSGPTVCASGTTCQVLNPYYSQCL

On to `OC[C@H]1O[C@@H](O[C@H]2[C@H](O)[C@@H](O)C(O)O[C@@H]2CO)[C@H](O)[C@@H](O)[C@@H]1O` (stereo partly shown) [cellobiose], for which the Ki was determined as 141 µM in data set [1], 39 µM in data set [2], 107 µM in data set [3] and 19 µM in data set [4]. Further, the “higher inhibition constant as compared to that of Tr CBHI/Cel7A” value in data set [1] (At CBH/Cel7A vs Tr CBHI/Cel7A, cellobiose) is “over 7 fold”. Besides, the Type of inhibition entry was “competitive” in data set [1] (At Cel7A, CNPLac substrate, 50 mM sodium phosphate pH 5.7, 22° C.); “competitive” in data set [2] (Ct Cel7A, CNPLac substrate, 50 mM sodium phosphate pH 5.7, 22° C.); “competitive” in data set [3] (Ta Cel7A, CNPLac substrate, 50 mM sodium phosphate pH 5.7, 22° C.); “competitive” in data set [4] (Tr Cel7A (control), CNPLac substrate, 50 mM sodium phosphate pH 5.7, 22° C.).

B1: At βG_101: beta-glucosidase of Acremonium thermophilum ALKO4245, gene At cel3A, amino acid SEQ ID NO: 24 (protein)
chain: MRQALVSLALLASSPVSAARELATSDPFYPSPWMNPEANGWEDAYAKAKAFVSQLTLLEKVNLTTGIGWQGGQCVGNVGSVPRLGLRSLCMQDSPVGIRFGDYVSVFPSGQTTAATFDKGLMNRRGNAMGQEHKGKGVNVLLGPVAGPIGRTPEGGRNWEGFSPDPVLTGIALAETIKGIQDAGVIACAKHFIANEQEHFRQSGEAQGYGFDISESLSSNIDDKTMHELYLWPFADGVRAGVGAIMCSYNQINNSYGCQNSKTLNNLLKNELGFQGFVMSDWQAQHTGAASAVAGLDMTMPGDTSFNTGLSYWGTNLTLAVLNGTVPEYRIDDMVMRIMAAFFKTGQTLDLPPINFDSWTTDTFGPLHFAVNEDRQQINWHVNVQDNHGSLIREIAAKGTVLLKNTGSLPLNKPKFLVVVGDDAGPNPAGPNACPDRGCDVGTLGMAWGSGSANFPYLITPDAALQAQAIKDGTRYESVLSNYQLDQTKALVTQANATAIVFVNADSGEGYINVDGNEGDRKNLTLWHDGDALIKSVAGWNPNTIVVIHSTGPVLVTDWYDHPNITAILWAGVPGQESGNAITDVLYGKVNPSGRSPFTWGPTRESYGTDVLYTPNNGKGAPQQAFSEGVFIDYRHFDRTNASVIYEFGHGLSYTTFQYSNIQVVKSNAGAYKPTTGTTIPAPTFGSFSKDLKDYLFPSDQFRYITQYIYPYLNSTDPAKASLDPHYGKTAAEFLPPHALDSNPQPLLRSSGKNEPGGNRQLYDILYTVTADITNTGSIVGAEVPQLYVSLGGPDDPKVVLRGFDRIRIDPGKTAQFRVTLTRRDLSNWDPAIQDWVISKYPKKVYIGRSSRKLELSADLA
For B1, the “Specific activity on 4-nitrophenyl-β-D-glucopyranoside” value in data set [5] was 1100 nkat/mg. The “Thermal stability: temperature up to which stable / 100% of activity retained” value in data set [6] is “up to 70 °C”. Further, the pH optimum in data set [7] turned out to be 4.5. Also, in data set [8], the “Temperature of highest activity” value amounted to 70 °C.
